Patent publication US10941132B2, “Pyrazole derivatives” (HUA MEDICINE (SHANGHAI) Ltd., priority 2016, dated 2021)

Each compound was assayed against T1, recombinant rat mGluR5 (Rattus norvegicus, UniProt P31424) (assay: Functional calcium flux assay (FLIPR), antagonist evaluation against glutamate-evoked [Ca2+]i increase). Details: Table 1; HEK293 cells stably expressing recombinant rat mGluR5; 15 min incubation of test compound, then submaximal glutamate; read-out: IC50 value (FLIPR assay).
T1 construct: expressed in transfected cells
Type: cell-based
Experimental: Functional Calcium Clux Assay Methodology
For functional assays, HEK293 cells stably expressing recombinant rat mGluR5 were seeded in 384-well plates and dye loaded using Fluo-8. Cells were then washed to remove the un-incorporated dye. Antagonist evaluation was performed following a 15 min incubation of the test compound followed by the addition of submaximal concentration of glutamate. Intracellular calcium ([Ca^2+]i) measurements were performed using a fluorometric imaging plate reader (FLIPR, Molecular Devices). The glutamate-evoked increase in [Ca^2′]i in the presence of the test compounds was compared to the response to glutamate alone (the positive control). Antagonist inhibition curves were fitted with a 4-parameter logistic equation giving IC50 values, and Hill coefficients using an iterative nonlinear curve fitting algorithm.
The tables below provide IC50 data in this assay. In the activity column, A=IC50>1,000 and ≤5,000 nM; B=IC50>500 and ≤1,000 nM and C=IC50≤500 nM.

T1 sequence (P31424 21-1203): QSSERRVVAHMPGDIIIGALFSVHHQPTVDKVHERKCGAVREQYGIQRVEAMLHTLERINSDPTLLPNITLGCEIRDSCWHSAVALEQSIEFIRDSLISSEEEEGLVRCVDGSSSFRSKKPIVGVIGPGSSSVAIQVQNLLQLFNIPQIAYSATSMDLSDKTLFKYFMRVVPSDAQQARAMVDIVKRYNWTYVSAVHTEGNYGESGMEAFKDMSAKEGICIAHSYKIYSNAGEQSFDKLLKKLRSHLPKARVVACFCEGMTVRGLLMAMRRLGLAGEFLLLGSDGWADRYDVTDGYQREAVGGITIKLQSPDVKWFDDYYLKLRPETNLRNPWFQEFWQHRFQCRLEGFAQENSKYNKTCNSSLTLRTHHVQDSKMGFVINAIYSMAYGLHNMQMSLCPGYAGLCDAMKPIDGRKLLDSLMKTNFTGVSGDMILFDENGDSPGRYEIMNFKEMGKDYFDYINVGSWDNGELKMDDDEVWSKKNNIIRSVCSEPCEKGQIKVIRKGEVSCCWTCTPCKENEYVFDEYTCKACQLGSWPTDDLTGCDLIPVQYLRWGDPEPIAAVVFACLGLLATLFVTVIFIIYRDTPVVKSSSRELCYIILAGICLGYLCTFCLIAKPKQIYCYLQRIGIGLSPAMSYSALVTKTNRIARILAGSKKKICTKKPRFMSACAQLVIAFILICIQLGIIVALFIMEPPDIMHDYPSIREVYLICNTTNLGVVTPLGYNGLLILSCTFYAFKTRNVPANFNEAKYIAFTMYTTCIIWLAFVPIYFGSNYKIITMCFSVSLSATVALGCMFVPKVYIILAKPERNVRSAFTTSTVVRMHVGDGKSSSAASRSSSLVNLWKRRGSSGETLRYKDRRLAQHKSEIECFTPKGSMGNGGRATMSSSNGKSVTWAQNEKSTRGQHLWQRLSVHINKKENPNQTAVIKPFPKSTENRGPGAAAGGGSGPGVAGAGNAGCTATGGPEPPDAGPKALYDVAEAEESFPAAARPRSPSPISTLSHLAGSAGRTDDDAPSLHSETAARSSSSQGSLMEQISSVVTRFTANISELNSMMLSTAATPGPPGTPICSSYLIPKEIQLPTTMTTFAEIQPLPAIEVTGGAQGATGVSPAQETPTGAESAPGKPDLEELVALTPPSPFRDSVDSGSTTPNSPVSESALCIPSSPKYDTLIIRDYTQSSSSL

Row | IC50 | Compound
1 | ≤ 500 nM | Fc1ccc(-n2cc(C#Cc3ccccn3)c(Cl)n2)cc1 [Compound 42, 2-((3-chloro-1-(4-fluorophenyl)-1H-pyrazol-4-yl)ethynyl)pyridine]
2 | 1000 to 5000 nM | CN(C)CCOc1nn(-c2cc(F)cc(C#N)c2)cc1C#Cc1ccccn1 [Compound 53, 3-(3-(2-(dimethylamino)ethoxy)-4-(pyridin-2-ylethynyl)-1H-pyrazol-1-yl)-5-fluorobenzonitrile]
3 | 1000 to 5000 nM | N#Cc1cc(F)cc(-n2cc(C#Cc3cnccn3)cn2)c1 [Compound 80, 3-fluoro-5-(4-(pyrazin-2-ylethynyl)-1H-pyrazol-1-yl)benzonitrile]
4 | ≤ 500 nM | N#Cc1cc(F)cc(-n2cc(C#Cc3ccccn3)c(OCCO)n2)c1 [Compound 48, 3-fluoro-5-(3-(2-hydroxyethoxy)-4-(pyridin-2-ylethynyl)-1H-pyrazol-1-yl)benzonitrile]
5 | ≤ 500 nM | FC(F)(F)Oc1ccc(-n2cc(C#Cc3cccc(Cl)c3)cn2)cc1 [Compound 92, 4-((3-chlorophenyl)ethynyl)-1-(4-(trifluoromethoxy)phenyl)-1H-pyrazole]
6 | 1000 to 5000 nM | Cc1c(C#Cc2ccccn2)c(N(C)C)nn1-c1ccc(OC(F)(F)F)cc1 [Compound 16]
7 | ≤ 500 nM | Fc1ccc(-n2cc(C#Cc3ccccc3)cn2)cc1 [Compound 81, 1-(4-fluorophenyl)-4-(phenylethynyl)-1H-pyrazole]
8 | 500 to 1000 nM | FC(F)(F)Oc1ccc(-n2cc(C#Cc3ccncc3)cn2)cc1 [Compound 94, 4-((1-(4-(trifluoromethoxy)phenyl)-1H-pyrazol-4-yl)ethynyl)pyridine]
9 | ≤ 500 nM | Fc1ccc(-n2cc(C#Cc3ccncc3)cn2)cc1 [Compound 87]
10 | ≤ 500 nM | Cc1nn(-c2ccc(F)cn2)c(C)c1C#Cc1ccccn1 [Compound 25, 2-(3,5-dimethyl-4-(pyridin-2-ylethynyl)-H-pyrazol-1-yl)-5-fluoropyridine]
11 | 500 to 1000 nM | N#Cc1cc(F)cc(-n2cc(C#Cc3cccc(Cl)c3)cn2)c1 [Compound 77, 3-fluoro-5-(4-(3-chloro-phenylethynyl)-1H-pyrazol-1-yl) benzonitrile]
12 | ≤ 500 nM | Cc1nn(-c2ccc(F)nc2)c(C)c1C#Cc1ccccn1 [Compound 24]
13 | ≤ 500 nM | Fc1ccc(-n2cc(C#Cc3ncccn3)cn2)cc1 [Compound 86, 2-((1-(4-fluorophenyl)-H-pyrazol-4-yl)ethynyl)pyrimidine]
14 | ≤ 500 nM | COc1nn(-c2ccc(F)cc2)c(C)c1C#Cc1ccccn1 [Compound 8, 2-((1-(4-fluorophenyl)-3-methoxy-5-methyl-1H-pyrazol-4-yl)ethynyl)pyridine]
15 | ≤ 500 nM | COCCOc1nn(-c2cc(F)cc(C#N)c2)cc1C#Cc1ccccn1 [Compound 32, 3-fluoro-5-(3-(2-methoxyethoxy)-4-(pyridin-2-ylethynyl)-1H-pyrazol-1-yl)benzonitrile]
16 | ≤ 500 nM | Cc1c(C#Cc2ccccn2)c(OC(F)F)nn1-c1cc(F)cc(C#N)c1 [Compound 37, 3-(3-(difluoromethoxy)-5-methyl-4-(pyridin-2-ylethynyl)-1H-pyrazol-1-yl)-5-fluorobenzonitrile]
17 | ≤ 500 nM | N#Cc1cc(F)cc(-n2cc(C#Cc3ncccn3)cn2)c1 [Compound 78, 3-fluoro-5-(4-(pyrimidin-2-ylethynyl)-1H-pyrazol-1-yl) benzonitrile]
18 | ≤ 500 nM | Fc1ccc(-n2cc(C#Cc3cccnc3)cn2)cc1 [Compound 83, 3-((1-(4-fluorophenyl)-1H-pyrazol-4-yl)ethynyl)pyridine]
19 | ≤ 500 nM | COc1nn(-c2ccc(OC(F)(F)F)cc2)c(C)c1C#Cc1ccccn1 [Compound 7, 2-((3-methoxy-5-methyl-1-(4-(trifluoromethoxy)phenyl)-1H-pyrazol-4-yl)ethynyl)pyridine]
20 | 1000 to 5000 nM | Cc1nn(-c2ccc(OC(F)(F)F)cc2)c(C(F)(F)F)c1C#Cc1ccccn1 [Compound 13, 2-((3-methyl-1-(4-(trifluoromethoxy)phenyl)-5-(trifluoromethyl)-1H-pyrazol-4-yl)ethynyl) pyridine]
21 | ≤ 500 nM | Cc1nn(-c2ccc(OC(F)(F)F)cc2)c(C)c1C#Cc1ncccn1 [Compound 14, 2-((3,5-dimethyl-1-(4-(trifluoromethoxy)phenyl)-1H-pyrazol-4-yl)ethynyl) pyrimidine]
22 | ≤ 500 nM | Fc1ccc(-n2cc(C#Cc3cccc(Cl)c3)cn2)cc1 [Compound 84, 4-((3-chlorophenyl)ethynyl)-1-(4-fluorophenyl)-1H-pyrazole]
23 | ≤ 500 nM | Fc1ccc(-n2cc(C#Cc3cnccn3)cn2)cc1 [Compound 88, 2-((1-(4-fluorophenyl)-1H-pyrazol-4-yl)ethynyl)pyrazine]
24 | ≤ 500 nM | COc1c(C#Cc2ccccn2)cnn1-c1ccc(F)cc1 [Compound 51, 2-((1-(4-fluorophenyl)-5-methoxy-1H-pyrazol-4-yl)ethynyl)pyridine]
25 | 500 to 1000 nM | CS(=O)(=O)c1ccc(-n2cc(C#Cc3ccccn3)cn2)cc1 [Compound 46, 2-((1-(4-(methylsulfonyl)phenyl)-1H-pyrazol-4-yl)ethynyl)pyridine]
26 | ≤ 500 nM | Fc1ccc(-n2ncc(C#Cc3ccccn3)c2Cl)cc1 [Compound 20]
27 | ≤ 500 nM | FC(F)(F)Oc1ccc(-n2ncc(C#Cc3ncccn3)c2Cl)cc1 [Compound 22]
28 | ≤ 500 nM | Fc1ccc(-n2ncc(C#Cc3ncccn3)c2Cl)cn1 [Compound 19, 2-((5-chloro-1-(6-fluoropyridin-3-yl)-1H-pyrazol-4-yl)ethynyl)pyrimidine]

Same assay, conditions: Table 2; HEK293 cells stably expressing recombinant rat mGluR5; 15 min incubation of test compound, then submaximal glutamate; read-out: IC50 (FLIPR assay)

Row | IC50 | Compound
29 | 1000 to 5000 nM | Cc1cc(C#Cc2cnccn2)nn1-c1ccc(OC(F)(F)F)cc1 [Compound 134, 2-((5-methyl-1-(4-(trifluoromethoxy)phenyl)-H-pyrazol-3-yl)ethynyl)pyrazine]
30 | ≤ 500 nM | Cc1cc(C#Cc2ccccn2)nn1-c1ccc(OC(F)(F)F)cc1 [Compound 136, 2-((5-methyl-1-(4-(trifluoromethoxy)phenyl)-1H-pyrazol-3-yl)ethynyl)pyridine]
31 | 1000 to 5000 nM | Cc1cc(C#Cc2ncccn2)nn1-c1ccc(F)cc1 [Compound 128, 2-((1-(4-fluorophenyl)-5-methyl-1H-pyrazol-3-yl)ethynyl)]
32 | 1000 to 5000 nM | FC(F)(F)Oc1ccc(-n2ccc(C#Cc3ccccc3)n2)cc1 [Compound 120]
33 | ≤ 500 nM | Fc1ccc(-n2ccc(C#Cc3ccncc3)n2)cc1 [Compound 118, 4-((1-(4-fluorophenyl)-1H-pyrazol-3-yl)ethynyl)pyridine]
34 | 1000 to 5000 nM | FC(F)(F)Oc1ccc(-n2ccc(C#Cc3cccc(Cl)c3)n2)cc1 [Compound 122, 3-((3-chlorophenyl)ethynyl)-1-(4-(trifluoromethoxy)phenyl)-1H-pyrazole]
35 | 500 to 1000 nM | Fc1ccc(-n2ccc(C#Cc3ncccn3)n2)cc1 [Compound 117, 2-((1-(4-fluorophenyl)-1H-pyrazol-3-yl)ethynyl)pyrimidine]
36 | ≤ 500 nM | Cc1cc(C#Cc2ccccn2)nn1-c1ccc(F)cn1 [Compound 73, 5-fluoro-2-(5-methyl-3-(pyridin-2-ylethynyl)-1H-pyrazol-1-yl)]
37 | 1000 to 5000 nM | Fc1ccc(-n2ccc(C#Cc3cnccn3)n2)cc1 [Compound 119, 2-((1-(4-fluorophenyl)-H-pyrazol-3-yl)ethynyl)pyrazine]
38 | ≤ 500 nM | Fc1ccc(-n2ccc(C#Cc3ccccn3)n2)nc1 [Compound 67, 5-fluoro-2-(3-(pyridin-2-ylethynyl)-1H-pyrazol-1-yl)pyridine]
